Counter-ions that a name gives are not always drawn.
Biological target: T1, aldose-reductase (AR) (Rattus norvegicus, UniProt P07943)
T1 construct: The supernatant obtained was used as AR; from tissue; host or cells: lenses of male Wistar rats (10000 rpm supernatant of homogenate)
Experiment: Aldose-reductase inhibitory activity (decrease in absorbance of NADPH at 340 nm, glyceraldehyde substrate)
Format: biochemical, Wister male rats (lenses)
Conditions: rat lens AR supernatant, 0.1M phosphate buffer pH 6.2, 30° C.
Procedure: The aldose-reductase (AR) activity was evaluated by determining spectrophotometrically the decrease in absorbance of NADPH at 340 nm due to the reduction of the substrate, i.e., glyceraldehyde according to the method described in Biochemical Pharmacology 25, pp 2505-2513 (1976).
The lenses of Wister male rats was homogenized with 0.5 ml of 0.1M phosphate buffer (pH 6.2) per lens by a glass homogenizer and the homogenate was centrifuged at 10000 rpm for 10 minutes. The supernatant obtained was used as AR.
The determination of the AR activity was conducted as follows. A 700 μl quantity of 0.1M phosphate buffer (pH 6.2), 100 μl of 2.21 mM NADPH, 100 μl of AR and 5 μl of DMSO containing each of test compounds in varying concentrations were placed in a cell for test sample, and 800 μl of 0.1M phosphate buffer (pH 6.2), 100 μl of 2.21 mM NADPH, 100 μl of AR and 5 μl of DMSO were placed in a cell for control. Then the solutions in the cells were thoroughly mixed together and the mixtures were maintained at 30° C. Then 100 μl of 100 mM glyceraldehyde maintained at 30° C. was added to a cell for test sample and quickly blended to initiate the reaction. The AR activity was determined from the rate of change of absorbance per minute in the linear part of variations of absorbance during a period of from 1 minute to three minutes after the start of the reaction, and a dose-response curve was drawn.

IC50 [nM] | SMILES
75 | Cc1sc2c(c1C)c(=O)n(Cc1ccc(Cl)cc1)c(=O)n2CC(=O)O [Compound I-1, 1-carboxymethyl-3-(4-chlorobenzyl)-5,6-dimethylthieno[2,3-d]pyrimidin-2,4(1H, 3H)-dione]
20 | Cc1sc2c(c1C)c(=O)n(Cc1ccc(Cl)cc1Cl)c(=O)n2CC(=O)O [Compound I-2]
26 | CC(C)c1cc2c(=O)n(Cc3ccc(Cl)c(Cl)c3)c(=O)n(CC(=O)O)c2s1 [Compound I-3]
17 | CC(C)c1cc2c(=O)n(Cc3ccc(Cl)cc3Cl)c(=O)n(CC(=O)O)c2s1 [Compound I-4]
30 | Cc1csc2c1c(=O)n(Cc1ccc(Cl)c(Cl)c1)c(=O)n2CC(=O)O [Compound I-5]
42 | O=C(O)Cn1c(=O)n(Cc2ccc(Cl)cc2Cl)c(=O)c2c3c(sc21)CCCC3 [Compound I-8]
26 | Cc1c(Br)sc2c1c(=O)n(Cc1ccc(Cl)c(Cl)c1)c(=O)n2CC(=O)O [Compound I-10]
25 | Cc1c(Cl)sc2c1c(=O)n(Cc1ccc(Cl)c(Cl)c1)c(=O)n2CC(=O)O [Compound I-11]
34 | O=C(O)Cn1c(=O)n(Cc2ccc(Br)cc2F)c(=O)c2cc(-c3ccccc3)sc21 [Compound I-13]
21 | Cc1sc2c(c1C)c(=O)n(Cc1ccc(Br)cc1F)c(=O)n2CC(=O)O [Compound I-14]
23 | O=C(O)Cn1c(=O)n(Cc2ccc(Br)cc2F)c(=O)c2c3c(sc21)CCCC3 [Compound I-15]
30 | O=C(O)Cn1c(=O)n(Cc2ccc(Br)cc2F)c(=O)c2cc(C3CCCC3)sc21 [Compound I-16]
22 | CC(C)c1cc2c(=O)n(Cc3ccc(Br)cc3F)c(=O)n(CC(=O)O)c2s1 [Compound I-17]
20 | O=C(O)Cn1c(=O)n(Cc2ccc(Br)cc2F)c(=O)c2ccsc21 [Compound I-19]
24 | Cc1csc2c1c(=O)n(Cc1ccc(Br)cc1F)c(=O)n2CC(=O)O [Compound I-20, 1-carboxymethyl-3-(4-bromo-2-fluorobenzyl)-5-methylthieno[2,3-d]pyrimidin-2,4(1H, 3H)-dione]
25 | O=C(O)Cn1c(=O)n(Cc2ccc(Br)cc2F)c(=O)c2cc(Cl)sc21 [I-24 (Lysine salt)]

— patent publication US4898867A, “Thienopyrimidine derivaties as aldose-reductase inhibitors” (Taiho Pharmaceutical Company, Limited, priority 1987, dated 1990)
